Data taken from patent publication US5312749A, “Industrial alkaline protease from shipworm bacterium” (The United States of America as represented by the …, priority 1992, dated 1994).
Counter-ions that a name gives are not always drawn. Like-named read-outs stand apart in the source and are kept apart here.

Columns and labels:
[1] = tested on: alkaline protease from shipworm bacterium; test: Inhibition of alkaline protease: preincubation with inhibitor, then azocasein assay; assay type: biochemical, bacterial symbiont of the shipworm Psiloteredo healdi; details: for Activity (%): assay 42° C., pH 9.0, 0.2M NaCl
Protocol: The protease purification was monitored by assaying for proteolytic activity and protein concentration after each step. Proteolytic activity was determined in duplicate assays employing azocasein for the substrate, as described by Cotta et al. [Applied Environmental Microbiology, vol. 52, 51-58 (1986)]. Units represent μg of azocasein digested per hour. Protein concentrations were determined by the method of Bradford [Analytical Biochemistry, […] (1976)] with bovine serum albumin as a standard.
Several compounds known to inhibit various proteases were examined for their effect on the activity of the purified enzyme from Example 2 (Table II). The protease was incubated prior to assay for 1 hr at 25° C. All assays were measured at 42° C. and pH 9.0 in 0.2M NaCl buffered with 100 mM bis Tris propane.

[2] = tested on: alkaline protease from shipworm bacterium; test: as above; assay type: biochemical, bacterial symbiont of the shipworm Psiloteredo healdi; details: inhibitor 0.1%; preincubation 1 hr at 42° C.; assay 42° C., pH 9.0, 0.2M NaCl
[3] = inhibitor 0.1 mM, preincubated 1 hr at 25° C., 100% = 154 units/ml
[4] = inhibitor 1 mM, preincubated 1 hr at 25° C., 100% = 154 units/ml
[5] = inhibitor 10 mM, preincubated 1 hr at 25° C., 100% = 154 units/ml

Structure (SMILES)	effect on the activity of the protease (in words) [1]	Activity (%) [1, 3] [%]	Activity (%) [1, 4] [%]	Activity (%) [1, 5] [%]	other results
NCCCCCC(=O)O [ε-Amino-n-caproic acid]	unaffected	–	–	–	Activity (%) ([1]; inhibitor 100 μg, preincubated 1 hr at 25° C.): 101%; Activity (%) ([1]; inhibitor 500 μg, preincubated 1 hr at 25° C.): 99%
O=S(=O)(F)Cc1ccccc1 [Phenylmethanesulphonyl fluoride]	does not inhibit activity	93	98	102	–
NC(=O)CI [Iodoacetamide]	little effect	102	102	100	–
[Cl][Hg][Cl] [HgCl2]	–	66	–	8	–
O.O.O.O.[Na+].[O-]B1OO1 [Sodium perborate tetrahydrate]	–	–	–	–	Activity (%) ([1]; inhibitor 0.1%, preincubation 1 hr at 25° C.): 119%; effect on the activity of the protease (in words) ([1]; listed as perborate): protease activity stimulation; effect on the activity of the protease (in words) ([1]; listed as sodium perborate): little effect; effect on the activity of the protease (in words) ([1]; listed as sodium perborate tetrahydrate): apparent enhancement of protease activity; Activity (%) [2]: 117%
Cc1ccc2ccc3ccc(C)nc3c2n1 [Neocuproine HCl]	little effect	–	–	99	–
O=C(O)CN(CCN(CC(=O)O)CC(=O)O)CC(=O)O [EDTA (disodium salt), EDTA]	little effect	–	–	102	–
Cc1ccc(S(=O)(=O)N[C@@H](Cc2ccccc2)C(=O)CCl)cc1 [TPCK, tosylamide phenylethyl chloromethyl ketone]	unaffected	94	99	100	–
Cc1ccc(S(=O)(=O)N[C@@H](CCCCN)C(=O)CCl)cc1 [TLCK, tosyl-1-lysine chloromethyl ketone]	significantly reduces the activity at low concentrations and abolishes it at high concentrations	47	20	7	–
[Cl][Cu][Cl] [CuCl2]	–	97	–	94	–
